Assays:
TIMP-2 = test: Quantitative RT-PCR analysis on calvaria: TIMP-2; assay type: cell-based, mouse; details: 7 days of culture, normalized to control = 1.00
Experimental: (§1) All chemicals were from Sigma-Aldrich. Primers for RT-PCR were from Applied Biosystems. The isolation of calvaria was essentially performed as described previously (Garrett, 2003; Garret et al., 2003). The calvaria were cultured in Biggers, Gwatkins, Judah medium supplemented with 1 mg/mL of bovine serum albumin (Cohn fraction V), 100 U/mL each of penicillin/streptomycin, and 0.292 mg/mL of glutaimine. On Day 1, the calvaria were treated with CDDO-Im or CDDO-EA. On Day 4, the medium was replaced with fresh medium, again containing either CDDO-Im or CDDO-EA. On Day 7, the calvaria were collected and either stored at −80° C. for further RNA analysis or fixed in 10% buffered formalin for 24 h and transferred to 80% ethanol for histological analysis.
(§2) After 7 days of culture, RNA was isolated from the calvaria and quantitative RT-PCR analysis was performed for more than 15 different markers including: SOX9 (a transcription factor specific for cartilage), collagen type II (alpha 1), all three isoforms of TGF-β, BMPs 2 and 4, BMP receptor II, Smads 3, 4, 6, and 7, tissue inhibitors of metalloproteinases (TIMP-1 and TIMP-2), and matrix metalloproteinase-9 (MMP-9). […] Both triterpenoids are strong inhibitors of the expression of MMP-9; CDDO-EA (200 nM), caused almost 80% inhibition of the expression of this metalloproteinase, which is known to be involved in the degradation of cartilage (Shinoda et al., 2008).

Col II alpha1 = test: Quantitative RT-PCR analysis on calvaria: Col II alpha1; assay type: cell-based, mouse; details: 7 days of culture, normalized to control = 1.00
Experimental: as §1, §2

TGF-β2 = test: Quantitative RT-PCR analysis on calvaria: TGF-β2; assay type: cell-based, mouse; details: 7 days of culture, normalized to control = 1.00
Experimental: as §1, §2

[1] = test system: collagen type II (COL2A1); test: Immunohistochemical analysis of collagen type II in calvaria; assay type: cell-based, mouse; details: 200 nM, FIG. 1b
Experimental: as §1
(§3) After fixation for 24 h, the calvaria were decalcified in EDTA, embedded in paraffin, and cut into 4 μm sections. The sections were stained either with modified hematoxylin and eosin or with toluidine blue (1% in 70% ethanol for 20 min, followed by destaining in 70%, 90%, and 100% ethanol for 15 seconds), placed in xylene twice, and then mounted (Garret, 2003). Procedures for immunofluroescence were performed essentially as previously described (Medici et al., 2010). […]

Smad7 = test: Quantitative RT-PCR analysis on calvaria: Smad7; assay type: cell-based, mouse; details: 7 days of culture, normalized to control = 1.00
Experimental: as §1, §2

SOX9 = test: Western blot of chondrocyte marker SOX9 in bone marrow-derived MSCs; assay type: cell-based, human; details: 100 nM for 7 days; MSCs in chondrogenic culture medium; not detectable in control
Experimental: (§4) Human bone marrow-derived stromal cells (ScienCell Research Laboratories), which contain a population of responsive mesenchymal stem cells, were grown in mesenchymal stem cell medium (ScienCell Research Laboratories). MSCs were serum-starved 24 hours prior to all experimental conditions. The synthesis of the synthetic triterpenoids, CDDO-Im and CDDO-EA, have been previously described (Sporn et al., 2011).
(§5) For directed chondrocytic differentiation, MSCs were grown in StemPro chondrogenic culture medium (Invitrogen) prepared by the technique of Kassem (2004), which is incorporated herein by reference. See also Medici et al. (2010), which is also incorporated herein by reference. CDDO-Im and CDDO-EA were added to the cultures at a concentration of 100 nM for 7 days. Western blot analysis was performed using the following antibodies at concentrations (and using protocols) recommended by the respective manufacturers: SOX9, COL2A1 (Santa Cruz Biotechnology), Aggrecan (Abcam), β-actin (Sigma-Aldrich). β-actin was used as a loading control. HRP-conjugated IgG TrueBlot reagents (eBioscience) were used at a dilution of 1:1000.

Aggrecan = test: Western blot of chondrocyte marker Aggrecan in bone marrow-derived MSCs; assay type: cell-based, human; details: 100 nM for 7 days; MSCs in chondrogenic culture medium; not detectable in control
Experimental: as §4, §5

newborn mouse calvaria = test: Histological analysis (toluidine blue) of chondrogenesis in newborn mouse calvarial organ cultures; assay type: cell-based; details: 200 nM, 7 days, FIG. 1a, at least 3 sets of replicate experiments
Experimental: as §1, §3

TGF-β3 = test: Quantitative RT-PCR analysis on calvaria: TGF-β3; assay type: cell-based, mouse; details: 7 days of culture, normalized to control = 1.00
Experimental: as §1, §2

COL2A1 = test: Western blot of chondrocyte marker COL2A1 in bone marrow-derived MSCs; assay type: cell-based, human; details: 100 nM for 7 days; MSCs in chondrogenic culture medium; not detectable in control
Experimental: as §4, §5

MMP-9 = test: Quantitative RT-PCR analysis on calvaria: MMP-9; assay type: cell-based, mouse; details: for MMP-9 expression (quantitative RT-PCR): 7 days of culture, normalized to control = 1.00
Experimental: as §1, §2

BMPRII = test: Quantitative RT-PCR analysis on calvaria: BMPRII; assay type: cell-based, mouse; details: 7 days of culture, normalized to control = 1.00
Experimental: as §1, §2

Smad3 = test: Quantitative RT-PCR analysis on calvaria: Smad3; assay type: cell-based, mouse; details: 7 days of culture, normalized to control = 1.00
Experimental: as §1, §2

BMP-2 = test: Quantitative RT-PCR analysis on calvaria: BMP-2; assay type: cell-based, mouse; details: 7 days of culture, normalized to control = 1.00
Experimental: as §1, §2

BMP-4 = test: Quantitative RT-PCR analysis on calvaria: BMP-4; assay type: cell-based, mouse; details: 7 days of culture, normalized to control = 1.00
Experimental: as §1, §2

Smad6 = test: Quantitative RT-PCR analysis on calvaria: Smad6; assay type: cell-based, mouse; details: 7 days of culture, normalized to control = 1.00
Experimental: as §1, §2

TGF-β1 = test: Quantitative RT-PCR analysis on calvaria: TGF-β1; assay type: cell-based, mouse; details: 7 days of culture, normalized to control = 1.00
Experimental: as §1, §2

SOX-9 = test: Quantitative RT-PCR analysis on calvaria: SOX-9; assay type: cell-based, mouse; details: 7 days of culture, normalized to control = 1.00
Experimental: as §1, §2

Smad4 = test: Quantitative RT-PCR analysis on calvaria: Smad4; assay type: cell-based, mouse; details: 7 days of culture, normalized to control = 1.00
Experimental: as §1, §2

TIMP-1 = test: Quantitative RT-PCR analysis on calvaria: TIMP-1; assay type: cell-based, mouse; details: 7 days of culture, normalized to control = 1.00
Experimental: as §1, §2

CCNC(=O)[C@]12CCC(C)(C)C[C@H]1[C@H]1C(=O)C=C3[C@@]4(C)C=C(C#N)C(=O)C(C)(C)[C@@H]4CC[C@@]3(C)[C@]1(C)CC2 [CDDO-EA, CDDO-Ethyl amide]
TIMP-2 expression (quantitative RT-PCR) (TIMP-2; 50 nM): 1.78 ± 0.18
TIMP-2 expression (quantitative RT-PCR) (TIMP-2; 200 nM): 2.44 ± 0.31
TIMP-2 expression (quantitative RT-PCR) (TIMP-2; 500 nM): 4.09 ± 0.36
Col II alpha1 expression (quantitative RT-PCR) (Col II alpha1; 50 nM): 4.12 ± 1.78
Col II alpha1 expression (quantitative RT-PCR) (Col II alpha1; 200 nM): 5.45 ± 1.13
Col II alpha1 expression (quantitative RT-PCR) (Col II alpha1; 500 nM): 3.18 ± 0.71
TGF-β2 expression (quantitative RT-PCR) (TGF-β2; 50 nM): 1.36 ± 0.13
TGF-β2 expression (quantitative RT-PCR) (TGF-β2; 200 nM): 1.61 ± 0.11
TGF-β2 expression (quantitative RT-PCR) (TGF-β2; 500 nM): 1.88 ± 0.09
formation of collagen type II (COL2A1), red fluorescence [1]: induce the formation of collagen type II
Smad7 expression (quantitative RT-PCR) (Smad7; 50 nM): 1.28 ± 0.10
Smad7 expression (quantitative RT-PCR) (Smad7; 200 nM): 1.86 ± 0.19
Smad7 expression (quantitative RT-PCR) (Smad7; 500 nM): 3.06 ± 0.28
induction of SOX9 (Western blot) (SOX9): clear induction
induction of Aggrecan (Western blot) (Aggrecan): clear induction
induction of chondrogenesis (metachromatic toluidine blue purple staining, proteoglycans) (newborn mouse calvaria): marked ability to induce chondrogenesis
TGF-β3 expression (quantitative RT-PCR) (TGF-β3; 50 nM): 1.39 ± 0.07
TGF-β3 expression (quantitative RT-PCR) (TGF-β3; 200 nM): 1.56 ± 0.13
TGF-β3 expression (quantitative RT-PCR) (TGF-β3; 500 nM): 1.44 ± 0.11
induction of COL2A1 (Western blot) (COL2A1): clear induction
MMP-9 expression (quantitative RT-PCR) (MMP-9; 50 nM): 0.49 ± 0.09
MMP-9 expression (quantitative RT-PCR) (MMP-9; 200 nM): 0.22 ± 0.03
inhibition of the expression of MMP-9 (MMP-9; 200 nM, RT-PCR): ~80%
MMP-9 expression (quantitative RT-PCR) (MMP-9; 500 nM): 0.19 ± 0.06
BMPRII expression (quantitative RT-PCR) (BMPRII; 50 nM): 1.50 ± 0.14
BMPRII expression (quantitative RT-PCR) (BMPRII; 200 nM): 1.71 ± 0.19
BMPRII expression (quantitative RT-PCR) (BMPRII; 500 nM): 2.24 ± 0.22
Smad3 expression (quantitative RT-PCR) (Smad3; 50 nM): 1.14 ± 0.12
Smad3 expression (quantitative RT-PCR) (Smad3; 200 nM): 1.35 ± 0.07
Smad3 expression (quantitative RT-PCR) (Smad3; 500 nM): 1.93 ± 0.16
BMP-2 expression (quantitative RT-PCR) (BMP-2; 50 nM): 1.53 ± 0.20
BMP-2 expression (quantitative RT-PCR) (BMP-2; 200 nM): 2.52 ± 0.29
BMP-2 expression (quantitative RT-PCR) (BMP-2; 500 nM): 5.66 ± 0.67
BMP-4 expression (quantitative RT-PCR) (BMP-4; 50 nM): 1.28 ± 0.12
BMP-4 expression (quantitative RT-PCR) (BMP-4; 200 nM): 1.47 ± 0.13
BMP-4 expression (quantitative RT-PCR) (BMP-4; 500 nM): 2.49 ± 0.35
Smad6 expression (quantitative RT-PCR) (Smad6; 50 nM): 1.09 ± 0.04
Smad6 expression (quantitative RT-PCR) (Smad6; 200 nM): 1.77 ± 0.24
Smad6 expression (quantitative RT-PCR) (Smad6; 500 nM): 2.85 ± 0.31
TGF-β1 expression (quantitative RT-PCR) (TGF-β1; 50 nM): 1.17 ± 0.09
TGF-β1 expression (quantitative RT-PCR) (TGF-β1; 200 nM): 1.47 ± 0.24
TGF-β1 expression (quantitative RT-PCR) (TGF-β1; 500 nM): 1.74 ± 0.17
SOX-9 expression (quantitative RT-PCR) (SOX-9; 50 nM): 1.64 ± 0.17
SOX-9 expression (quantitative RT-PCR) (SOX-9; 200 nM): 2.62 ± 0.33
SOX-9 expression (quantitative RT-PCR) (SOX-9; 500 nM): 3.12 ± 0.38
Smad4 expression (quantitative RT-PCR) (Smad4; 50 nM): 1.06 ± 0.03
Smad4 expression (quantitative RT-PCR) (Smad4; 200 nM): 1.37 ± 0.12
Smad4 expression (quantitative RT-PCR) (Smad4; 500 nM): 1.89 ± 0.12
TIMP-1 expression (quantitative RT-PCR) (TIMP-1; 50 nM): 1.88 ± 0.34
TIMP-1 expression (quantitative RT-PCR) (TIMP-1; 200 nM): 2.85 ± 0.38
TIMP-1 expression (quantitative RT-PCR) (TIMP-1; 500 nM): 4.65 ± 0.38
